Measured values published in patent US11845724B2, “USP30 inhibitors and uses thereof” (Vincere Biosciences, Inc., priority 2019, dated 2023).
Where two headings read alike, the source gives them in different places.

Columns and labels:
[1] = target: recombinant USP30 (amino acids 57-517 of the human sequence) (Homo sapiens (Human), UniProt Q70CQ3); test: In vitro USP30 biochemical assay (Ubiquitin-Rhodamine)
Experimental: In vitro biochemical assay to establish the potency of compounds for USP30 inhibition: a 384-well plate assay using a fluorophore tagged substrate of USP30 was used for in vitro screening of compounds. Each compound was tested at 10 different concentrations (0.5 to 10,000 nM) in duplicate wells. Compounds were pre-incubated at 25° C. for 30 min in an assay buffer consisting of 20 mM Tris/HCl, pH8.0, 1 mM GSH, 0.01% Triton X-100, 0.03% BGG and 1.5 nM recombinant USP30 (amino acids 57-517 of the human sequence with a C-terminal 6-His tag). Following the pre-incubation, Ubiquitin-Rhodamine substrate dissolved in the assay buffer was added at the final concentration of 25 nM to each well and plates were incubated at 25° C. for an additional 75 minutes. The reaction was stopped by adding 10 mM citric acid and fluorescence was read using excitation wavelength 485 nm, emission of 535 nm. Data were analyzed using Graph Pad Prism software with a four-parameter (floating slope) fit to log concentration data to determine IC50s.

USP30 = USP30 (Homo sapiens (Human), UniProt Q70CQ3); test: Dundee MALDI-TOF mass spectrometry assay (IC50); type: biochemical; details: USP30 25 ng/μl, K48-linked diubiquitin 5.6 μM, avg, read-out: Dundee IC50 μM (avg in vitro MS assay)
USP30, sequence (Q70CQ3 whole entry): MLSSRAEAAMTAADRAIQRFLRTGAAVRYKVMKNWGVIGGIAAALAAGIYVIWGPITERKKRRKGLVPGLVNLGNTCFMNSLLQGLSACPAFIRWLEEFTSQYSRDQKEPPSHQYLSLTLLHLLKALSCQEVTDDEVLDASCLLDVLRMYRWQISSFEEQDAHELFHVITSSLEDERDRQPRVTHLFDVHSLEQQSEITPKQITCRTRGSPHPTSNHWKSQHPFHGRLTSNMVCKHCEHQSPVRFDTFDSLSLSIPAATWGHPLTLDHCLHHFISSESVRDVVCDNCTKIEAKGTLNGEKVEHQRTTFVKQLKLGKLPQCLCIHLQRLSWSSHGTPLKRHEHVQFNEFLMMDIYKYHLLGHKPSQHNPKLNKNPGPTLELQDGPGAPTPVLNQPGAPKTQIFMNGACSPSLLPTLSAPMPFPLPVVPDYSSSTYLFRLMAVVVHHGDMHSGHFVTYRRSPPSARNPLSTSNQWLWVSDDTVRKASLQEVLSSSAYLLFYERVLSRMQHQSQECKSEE
Experimental: Compounds were tested in a MALDI-TOF assay based on the paper by Ritorto et al. (Ritorto et al. Screening of DUB activity and specificity by MALDI-TOF mass spectrometry. Nat. […] USP30 (25 ng/μl) tested against K48-linked diubiquitin (5.6 μM). USP30 was diluted in a buffer containing 40 mM Tris, 0.01% BSA, 1 mM DTT and K48 in 40 mM Tris, 0.01% BSA. The compounds were pre-incubated with the USP30 for 5 mins at room temp before the K48 dimer addition. The assay mixture was then incubated for 45 mins at room temp. The assay was stopped by the addition of TFA to a final concentration of 2% (v/v). […] Then 250 nl of these solutions were spotted onto an MTP AnchorChip 1,536 TF and this is analysed on the Bruker rapifleX MALDI-TOF.

[2] = USP30 IC50 μM (avg), Ubiquitin-Rhodamine substrate 25 nM, 1.5 nM recombinant USP30
[3] = read-out: USP30 IC50 μM (avg), Ubiquitin-Rhodamine substrate 25 nM, 1.5 nM recombinant USP30

recombinant USP30 (amino acids 57-517 of the human sequence), sequence (Q70CQ3 57-517): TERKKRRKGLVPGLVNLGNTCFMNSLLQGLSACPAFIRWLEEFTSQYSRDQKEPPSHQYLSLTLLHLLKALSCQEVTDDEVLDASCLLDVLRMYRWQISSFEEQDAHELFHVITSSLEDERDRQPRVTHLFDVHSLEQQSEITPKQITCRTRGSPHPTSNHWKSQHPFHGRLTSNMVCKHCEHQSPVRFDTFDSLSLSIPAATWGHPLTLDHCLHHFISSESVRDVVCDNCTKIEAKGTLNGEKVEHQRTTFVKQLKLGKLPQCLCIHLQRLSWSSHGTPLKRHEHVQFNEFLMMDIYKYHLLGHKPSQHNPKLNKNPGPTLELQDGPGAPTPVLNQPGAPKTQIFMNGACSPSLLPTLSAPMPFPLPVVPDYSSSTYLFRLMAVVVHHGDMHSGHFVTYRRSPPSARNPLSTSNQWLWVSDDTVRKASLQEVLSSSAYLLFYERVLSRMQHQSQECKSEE

SMILES	IC50 [1, 2]	IC50 (USP30)	IC50 [1, 3]
O=C(N[C@@H](Cc1ccccc1)C(=O)Nc1ccc(S(=O)(=O)NC23CC(C2)C3)cc1)c1cccc(F)c1 [Compound I-95, (S)-N-(1-(4-(N-bicyclo[1.1.1]pentan-1-ylsulfamoyl)phenylamino)-1-oxo-3-phenylpropan-2-yl)-3-fluorobenzamide]	0.05 to 1 µM	0.05 to 1 µM	–
CN(C(=O)c1ccc(F)cc1)[C@@H](Cc1cccnc1)C(=O)Nc1ccc(S(=O)(=O)NC(C)(C)C)cc1 [Compound I-91, (S)-N-(1-(4-(N-tert-butylsulfamoyl)phenylamino)-1-oxo-3-(pyridin-3-yl)propan-2-yl)-4-fluoro-N-methylbenzamide]	0.05 to 1 µM	0.05 to 1 µM	–
CC(C)(C)OCCNS(=O)(=O)c1ccc(NC(=O)[C@H](Cc2ccccc2)NC(=O)c2ccc(F)cc2)cc1 [Compound I-135, (S)-N-(1-(4-(N-(2-tert-butoxyethyl)sulfamoyl)phenylamino)-1-oxo-3-phenylpropan-2-yl)-4-fluorobenzamide]	1 to 10 µM	0.05 to 1 µM	–
COc1cc(NC(=O)[C@H](Cc2ccccc2)NC(=O)c2ccc(F)cc2)ccc1S(=O)(=O)NC12CC(C1)C2 [Compound I-148, (S)-N-(1-(4-(N-bicyclo[1.1.1]pentan-1-ylsulfamoyl)-3-methoxyphenylamino)-1-oxo-3-phenylpropan-2-yl)-4-fluorobenzamide]	0.05 to 1 µM	< 0.05 µM	–
COCC(C)(C)NS(=O)(=O)c1ccc(NC(=O)[C@H](Cc2ccccc2)NC(=O)c2ccc(F)cc2)cc1 [Compound I-134, (S)-4-fluoro-N-(1-(4-(N-(1-methoxy-2-methylpropan-2-yl)sulfamoyl)phenylamino)-1-oxo-3-phenylpropan-2-yl)benzamide]	–	< 0.05 µM	< 0.05 µM
Cc1cc(NC(=O)[C@H](Cc2ccccc2)NC(=O)c2ccc(F)cn2)ccc1S(=O)(=O)NC12CC(C1)C2 [Compound I-98, (S)-N-(1-(4-(N-bicyclo[1.1.1]pentan-1-ylsulfamoyl)-3-methylphenylamino)-1-oxo-3-phenylpropan-2-yl)-5-fluoropicolinamide]	0.05 to 1 µM	0.05 to 1 µM	–
CCNS(=O)(=O)c1cccc2c(NC(=O)[C@H](Cc3ccccc3)NC(=O)c3ccc(F)cc3)cccc12 [Compound I-125]	0.05 to 1 µM	< 0.05 µM	–
O=C(N[C@@H](Cc1ccccc1)C(=O)Nc1ccc(S(=O)(=O)NCC(F)(F)F)cc1)c1ccc(F)cc1 [Compound I-23, (S)-4-fluoro-N-(1-oxo-3-phenyl-1-(4-(N-(2,2,2-trifluoroethyl)sulfamoyl)phenylamino)propan-2-yl)benzamide]	0.05 to 1 µM	< 0.05 µM	–
CC(C)(C)NS(=O)(=O)N1CCCc2c(NC(=O)[C@H](Cc3ccccc3)NC(=O)C3CCCCC3)cccc21 [Compound I-129, (S)-N-(1-(1-(N-tert-butylsulfamoyl)-1,2,3,4-tetrahydroquinolin-5-ylamino)-1-oxo-3-phenylpropan-2-yl)cyclohexanecarboxamide]	1 to 10 µM	1 to 10 µM	–
CCNS(=O)(=O)N1CCCc2c(NC(=O)[C@H](Cc3ccccc3)NC(=O)C3CCCCC3)cccc21 [Compound I-126, (S)-N-(1-(1-(N-ethylsulfamoyl)-1,2,3,4-tetrahydroquinolin-5-ylamino)-1-oxo-3-phenylpropan-2-yl)cyclohexanecarboxamide]	–	1 to 10 µM	> 10 µM
COCC(C)(C)NS(=O)(=O)c1ccc(NC(=O)[C@H](Cc2ccccc2)NC(=O)c2ccc(F)cc2)cn1 [Compound I-113, (S)-4-fluoro-N-(1-(6-(N-(1-methoxy-2-methylpropan-2-yl)sulfamoyl)pyridin-3-ylamino)-1-oxo-3-phenylpropan-2-yl)benzamide]	0.05 to 1 µM	0.05 to 1 µM	–
O=C(N[C@@H](Cc1ccccn1)C(=O)Nc1ccc(S(=O)(=O)NC2CCC2)cc1)c1ccc(F)cc1 [Compound I-142, (S)-N-(1-(4-(N-cyclobutylsulfamoyl)phenylamino)-1-oxo-3-(pyridin-2-yl)propan-2-yl)-4-fluorobenzamide]	0.05 to 1 µM	< 0.05 µM	–
O=C(N[C@@H](Cc1ccccn1)C(=O)Nc1ccc(S(=O)(=O)NC23CC(C2)C3)cc1)c1ccc(F)cc1 [Compound I-141, (S)-N-(1-(4-(N-bicyclo[1.1.1]pentan-1-ylsulfamoyl)phenylamino)-1-oxo-3-(pyridin-2-yl)propan-2-yl)-4-fluorobenzamide]	0.05 to 1 µM	0.05 to 1 µM	–
COc1cc(NC(=O)[C@H](Cc2ccccc2)NC(=O)c2ccc(F)cc2)ccc1S(=O)(=O)NC1COC1 [Compound I-147, (S)-4-fluoro-N-(1-(3-methoxy-4-(N-oxetan-3-ylsulfamoyl)phenylamino)-1-oxo-3-phenylpropan-2-yl)benzamide]	0.05 to 1 µM	< 0.05 µM	–
CCNS(=O)(=O)c1ccc(NC(=O)[C@H](Cc2ccccn2)NC(=O)c2ccc(F)cc2)cc1 [Compound I-139, (S)-N-(1-(4-(N-ethylsulfamoyl)phenylamino)-1-oxo-3-(pyridin-2-yl)propan-2-yl)-4-fluorobenzamide]	0.05 to 1 µM	0.05 to 1 µM	–
CC1(NS(=O)(=O)c2ccc(NC(=O)[C@H](Cc3ccccc3)NC(=O)c3ccc(F)cc3)cn2)COC1 [Compound I-115, (S)-4-fluoro-N-(1-(6-(N-(3-methyloxetan-3-yl)sulfamoyl)pyridin-3-ylamino)-1-oxo-3-phenylpropan-2-yl)benzamide]	0.05 to 1 µM	< 0.05 µM	–
O=C(N[C@@H](Cc1ccccc1)C(=O)Nc1ccc(S(=O)(=O)NC2CCC2)cc1)c1ccccn1 [Compound I-78, (S)-N-(1-(4-(N-cyclobutylsulfamoyl)phenylamino)-1-oxo-3-phenylpropan-2-yl) picolinamide]	1 to 10 µM	0.05 to 1 µM	–
CCNS(=O)(=O)c1ccc(NC(=O)[C@H](Cc2ccccc2)NC(=O)c2ccc(F)cc2)c(F)c1 [Compound I-157, (S)-N-(1-(4-(N-ethylsulfamoyl)-2-fluorophenylamino)-1-oxo-3-phenylpropan-2-yl)-4-fluorobenzamide]	0.05 to 1 µM	0.05 to 1 µM	–
CC1(NS(=O)(=O)c2ccc(NC(=O)[C@H](Cc3ccccc3)NC(=O)c3ccc(F)cc3)cc2)COC1 [Compound I-136, (S)-4-fluoro-N-(1-(4-(N-(3-methyloxetan-3-yl)sulfamoyl)phenylamino)-1-oxo-3-phenylpropan-2-yl)benzamide]	–	< 0.05 µM	< 0.05 µM
Cc1cc(NC(=O)[C@H](Cc2ccccc2)NC(=O)c2ccc(F)cc2)ccc1S(=O)(=O)NC(C)(C)C [Compound I-96, (S)-N-(1-(4-(N-tert-butylsulfamoyl)-3-methylphenylamino)-1-oxo-3-phenylpropan-2-yl)-4-fluorobenzamide]	–	0.05 to 1 µM	< 0.05 µM
O=C(N[C@@H](Cc1ccccc1)C(=O)Nc1ccc(S(=O)(=O)NCCCN2CCOCC2)nc1)c1ccc(F)cc1 [Compound I-112, (S)-4-fluoro-N-(1-(6-(N-(3-morpholinopropyl)sulfamoyl)pyridin-3-ylamino)-1-oxo-3-phenylpropan-2-yl)benzamide]	0.05 to 1 µM	0.05 to 1 µM	–
O=C(N[C@@H](Cc1ccccc1)C(=O)Nc1ccc(S(=O)(=O)NC23CC(C2)C3)cn1)c1ccc(F)cc1 [Compound I-118, (S)-N-(1-(5-(N-bicyclo[1.1.1]pentan-1-ylsulfamoyl)pyridin-2-ylamino)-1-oxo-3-phenylpropan-2-yl)-4-fluorobenzamide]	0.05 to 1 µM	0.05 to 1 µM	–
COc1cc(NC(=O)[C@H](Cc2ccccc2)NC(=O)c2ccc(F)cc2)ccc1S(=O)(=O)NCCO [Compound I-152, (S)-4-fluoro-N-(1-(4-(N-(2-hydroxyethyl)sulfamoyl)-3-methoxyphenylamino)-1-oxo-3-phenylpropan-2-yl)benzamide]	0.05 to 1 µM	< 0.05 µM	–
COc1cc(S(=O)(=O)NC2COC2)ccc1NC(=O)[C@H](Cc1ccccc1)NC(=O)c1ccc(F)cc1 [Compound I-144, (S)-4-fluoro-N-(1-(2-methoxy-4-(N-oxetan-3-ylsulfamoyl)phenylamino)-1-oxo-3-phenylpropan-2-yl)benzamide]	0.05 to 1 µM	0.05 to 1 µM	–
CCNS(=O)(=O)c1ccc(NC(=O)[C@H](Cc2ccccc2)NC(=O)c2ccc(F)cc2)cc1 [Compound I-5, (S)-N-(1-(4-(N-Ethylsulfamoyl)phenylamino)-1-oxo-3-phenylpropan-2-yl)-4-fluorobenzamide]	0.05 to 1 µM	< 0.05 µM	–
CC(C)(CO)NS(=O)(=O)c1ccc(NC(=O)[C@H](Cc2ccccc2)NC(=O)c2ccc(F)cc2)cn1 [Compound I-116, (S)-4-fluoro-N-(1-(6-(N-(1-hydroxy-2-methylpropan-2-yl)sulfamoyl)pyridin-3-ylamino)-1-oxo-3-phenylpropan-2-yl)benzamide]	0.05 to 1 µM	0.05 to 1 µM	–
CN(C(=O)c1ccc(F)cc1)[C@@H](Cc1ccccc1)C(=O)Nc1ccc(S(=O)(=O)NC2COC2)cc1 [Compound I-70, (S)-4-fluoro-N-methyl-N-(1-(4-(N-oxetan-3-ylsulfamoyl)phenylamino)-1-oxo-3-phenylpropan-2-yl)benzamide]	1 to 10 µM	1 to 10 µM	–
